Reference: US20070104644A1, “Inhibitor imaging agents” (priority 2003, published 2007)

What was measured:
MMP-1 = biological target: T1, MMP-1 (Homo sapiens, UniProt P03956); assay: MMP-1 colorimetric assay kit (Biomol AK-404); assay type: biochemical
T1 sequence (P03956 100-469): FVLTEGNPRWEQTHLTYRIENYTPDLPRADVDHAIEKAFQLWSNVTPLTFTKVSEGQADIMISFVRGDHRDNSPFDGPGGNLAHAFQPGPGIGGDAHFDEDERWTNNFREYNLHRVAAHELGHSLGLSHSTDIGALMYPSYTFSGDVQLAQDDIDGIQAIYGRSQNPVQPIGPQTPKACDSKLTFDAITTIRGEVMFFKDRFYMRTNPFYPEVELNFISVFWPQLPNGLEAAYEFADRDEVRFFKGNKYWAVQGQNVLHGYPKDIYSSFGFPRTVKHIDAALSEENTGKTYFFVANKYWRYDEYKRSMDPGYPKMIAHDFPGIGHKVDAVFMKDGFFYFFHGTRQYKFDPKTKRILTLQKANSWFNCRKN
Procedure: (§1) Compounds were screened using the following commercially available Biomol assay kits: • MMP-1 colorimetric assay kit—Catalogue number AK-404, • MMP-2 colorimetric assay kit—Catalogue number AK-408, • MMP-8 calorimetric assay kit—Catalogue number AK-414, • MMP-9 calorimetric assay kit—Catalogue number AK-410, • MMP-12 colorimetric assay kit—Catalogue number AK-402, Which are available from Affiniti Research Products Ltd. (Palatine House, Matford Court, Exeter, EX2 8NL, UK).
(§2) Inhibitors were provided in powdered form, and stored at 4° C. For each inhibitor a 1 mM stock solution in DMSO was prepared, dispensed into 20 μl aliquots and these aliquots stored at −20° C. The stock solution was diluted to give 8 inhibitor concentrations (recommended: 50 μM, 5 μM, 500 nM, 50 nM, 5 nM, 500 pM, 50 pM and 5 pM). Dilutions were made in the kit assay buffer. A five-fold dilution of the inhibitor stocks is made on addition to the assay wells, therefore final concentration range was from 10 μM to 1 pM.
(§3) Details are provided with the commercial kit, but can be summarised as follows: • Prepare test compound dilutions as above, • Add assay buffer to plate, • Add test compounds to plate • Prepare standard kit inhibitor NNGH (see kit for dilution factor) • Add NNGH to control inhibitor wells • Prepare MMP enzyme (see kit for dilution factor) • Add MMP to plate • Incubate plate at 37° C. for ˜15 min • Prepare thiopeptolide substrate (see kit for dilution factor) • Add substrate to plate • Count every 2 min for 1 hr, 37° C., 414 nm on a Labsystems iEMS plate reader (for MMP-1 count every 30 seconds for 20 minutes).

MMP-2 = biological target: T2, MMP-2 (Homo sapiens, UniProt P08253); assay: MMP-2 colorimetric assay kit (Biomol AK-408); assay type: biochemical
T2 sequence (P08253 110-660): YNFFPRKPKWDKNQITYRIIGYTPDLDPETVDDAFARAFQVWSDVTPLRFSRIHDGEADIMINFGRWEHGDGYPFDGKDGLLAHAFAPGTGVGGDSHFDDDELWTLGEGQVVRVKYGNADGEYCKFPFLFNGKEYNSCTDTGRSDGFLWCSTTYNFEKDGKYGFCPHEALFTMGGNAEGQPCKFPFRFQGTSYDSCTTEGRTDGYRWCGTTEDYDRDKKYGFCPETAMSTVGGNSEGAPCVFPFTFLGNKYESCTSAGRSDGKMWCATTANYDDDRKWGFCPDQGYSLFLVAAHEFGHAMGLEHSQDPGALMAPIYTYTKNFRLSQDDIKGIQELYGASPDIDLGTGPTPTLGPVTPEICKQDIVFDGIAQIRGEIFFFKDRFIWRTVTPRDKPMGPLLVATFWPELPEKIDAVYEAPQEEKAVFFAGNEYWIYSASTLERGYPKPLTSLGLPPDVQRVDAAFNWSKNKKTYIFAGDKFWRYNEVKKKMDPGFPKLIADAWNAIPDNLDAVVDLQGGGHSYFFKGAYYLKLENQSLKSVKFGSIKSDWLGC
Procedure: as §1, §2, §3

MMP-8 = MMP-8 (Homo sapiens, UniProt P22894); assay: MMP-8 colorimetric assay kit (Biomol AK-414); assay type: biochemical
MMP-8, sequence (P22894 101-467): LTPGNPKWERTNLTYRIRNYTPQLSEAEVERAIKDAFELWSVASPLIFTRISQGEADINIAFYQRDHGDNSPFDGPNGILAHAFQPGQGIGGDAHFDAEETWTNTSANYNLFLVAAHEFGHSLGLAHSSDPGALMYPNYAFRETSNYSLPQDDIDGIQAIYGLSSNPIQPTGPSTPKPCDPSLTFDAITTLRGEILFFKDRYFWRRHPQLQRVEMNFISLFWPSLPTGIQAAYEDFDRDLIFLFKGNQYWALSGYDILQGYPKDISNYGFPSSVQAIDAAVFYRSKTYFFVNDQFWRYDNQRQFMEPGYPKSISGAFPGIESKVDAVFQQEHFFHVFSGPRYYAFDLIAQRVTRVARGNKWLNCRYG
Procedure: as §1, §2, §3

MMP-9 = MMP-9 (Homo sapiens, UniProt P14780); assay: MMP-9 colorimetric assay kit (Biomol AK-410); assay type: biochemical
MMP-9, sequence (P14780 94-707): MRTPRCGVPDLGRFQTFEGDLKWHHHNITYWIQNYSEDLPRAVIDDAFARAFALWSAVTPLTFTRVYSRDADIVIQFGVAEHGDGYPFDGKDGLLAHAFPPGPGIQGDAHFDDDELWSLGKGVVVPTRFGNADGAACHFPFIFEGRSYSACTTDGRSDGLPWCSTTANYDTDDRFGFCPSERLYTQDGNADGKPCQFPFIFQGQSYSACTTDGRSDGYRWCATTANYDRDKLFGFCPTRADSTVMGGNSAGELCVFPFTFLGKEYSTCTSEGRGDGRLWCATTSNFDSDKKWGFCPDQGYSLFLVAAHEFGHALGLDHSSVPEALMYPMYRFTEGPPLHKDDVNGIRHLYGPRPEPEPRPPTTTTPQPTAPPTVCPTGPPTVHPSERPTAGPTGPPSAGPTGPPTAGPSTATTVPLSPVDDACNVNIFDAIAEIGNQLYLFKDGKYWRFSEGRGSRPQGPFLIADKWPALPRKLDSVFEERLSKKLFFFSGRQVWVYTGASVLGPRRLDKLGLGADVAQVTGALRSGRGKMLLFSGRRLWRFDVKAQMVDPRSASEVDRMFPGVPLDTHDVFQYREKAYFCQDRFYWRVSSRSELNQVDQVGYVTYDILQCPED
Procedure: as §1, §2, §3

MMP-12 = MMP-12 (Homo sapiens, UniProt P39900); assay: MMP-12 colorimetric assay kit (Biomol AK-402); assay type: biochemical
MMP-12, sequence (P39900 106-470): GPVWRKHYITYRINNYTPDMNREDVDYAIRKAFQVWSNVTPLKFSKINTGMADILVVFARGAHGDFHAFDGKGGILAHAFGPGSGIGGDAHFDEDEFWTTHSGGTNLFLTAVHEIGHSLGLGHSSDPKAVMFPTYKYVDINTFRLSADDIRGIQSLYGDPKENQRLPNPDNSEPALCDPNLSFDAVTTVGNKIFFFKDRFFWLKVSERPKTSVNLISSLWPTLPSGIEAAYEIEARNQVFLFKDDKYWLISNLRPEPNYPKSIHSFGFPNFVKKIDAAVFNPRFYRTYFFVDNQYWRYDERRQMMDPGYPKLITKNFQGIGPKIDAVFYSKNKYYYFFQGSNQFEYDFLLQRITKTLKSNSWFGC
Procedure: as §1, §2, §3

[1] = test system: Lewis lung carcinoma (LLC) tumour; assay: Biodistribution in LLC tumour model in vivo; parameters: species or system C57BL/6 mice
Procedure: 1×10^6 Lewis lung carcinoma (LLC) cells are injected subcutaneously into right inner thigh of C57BL/6 mice. Tumours were allowed to grow for 15 days prior to biodistribution being carried out.
Biodistribution studies were performed in the LLC tumour model.
Biodistribution was performed in the LLC tumour model of Example 23 with Compounds 46B and 48B.

[2] = test system: ApoE −/− mice, carotid artery; assay: Biodistribution in ApoE ligation model of atherosclerosis (ligated and sham); assay type: in vivo; conditions: ApoE Ligated
Text: ApoE −/− mice are transgenic knock-out mice, which lack the ApoE gene, and are therefore unable to regulate their plasma cholesterol levels. As a consequence ApoE mice develop atherosclerotic lesions, a process which is accelerated with feeding of high fat diet. Further acceleration of lesion development can be achieved by ligating the carotid artery, resulting in advanced lesion formation within 4 weeks of surgery and high fat diet feeding.
Two controls have been used for these experiments: (1) ApoE sham animals in which the mice undergo the same surgical intervention but the sture is only passed beneath the carotid and then removed and, (2) C57BL/6 ligtaed animals which undergo the same surgical ligation and high fat feeding as the ApoE ligated mice. Literature reports have stated that these animals do have some level of tissue remodelling, but with lower active MMP levels [Ivan et al, Circulation, 105, 2686-2691 (2002)].

Structure (SMILES): O=C(CCN(C1(C(=O)NO)CCCC1)S(=O)(=O)c1ccc(Oc2ccc(F)cc2)cc1)NCCc1ccc(O)c(I)c1 [Compound 24]
- Ki (MMP-1): 4950 nM
- Ki (MMP-2): 0.14 nM
- Ki (MMP-8): 3.93 nM
- Ki (MMP-9): 0.58 nM
- Ki (MMP-12): 0.67 nM

Structure (SMILES): NC(=O)[C@H](Cc1ccc(O)c(I)c1)NC(=O)CCOCCOCCOCCOCCOCCOCCOCCOCCOCCOCCOCCNC(=O)CCN(C1(C(=O)NO)CCCC1)S(=O)(=O)c1ccc(Oc2ccc(F)cc2)cc1 [Compound 44]
- Ki (MMP-2): 0.25 nM
- Ki (MMP-9): 0.076 nM

Structure (SMILES): NCCCC[C@H](NC(=O)CCN(C1(C(=O)NO)CCCC1)S(=O)(=O)c1ccc(Oc2ccc(F)cc2)cc1)C(=O)N[C@@H](CCCCN)C(=O)N[C@@H](CCCCN)C(=O)N[C@@H](CCCCN)C(=O)N[C@@H](CCCCN)C(=O)NCCOCCOCCOCCNC(=O)COCC(=O)N[C@@H](Cc1ccc(O)c(I)c1)C(N)=O [Compound 42]
- Ki (MMP-2): 2.19 nM
- Ki (MMP-9): 0.585 nM

Structure (SMILES): NC(=O)[C@H](CCCCNC(=O)CON=Cc1ccc([18F])cc1)NC(=O)CCN(C1(C(=O)NO)CCCC1)S(=O)(=O)c1ccc(Oc2ccc(F)cc2)cc1 [Compound 46B]
- % ID Urinary (urinary excretion), mean ([1]; 5 min post injection): 6.60 % ID
- % ID/g Tumour, mean ([1]; 5 min post injection): 0.42 % ID/g
- Tumour/Blood, mean ([1]; 5 min post injection): 0.18
- Tumour/Heart, mean ([1]; 5 min post injection): 0.37
- Tumour/Lung, mean ([1]; 5 min post injection): 0.21
- Tumour/Muscle, mean ([1]; 5 min post injection): 1.16
- % ID Urinary (urinary excretion), mean ([1]; 30 min post injection): 12.00 % ID
- % ID/g Tumour, mean ([1]; 30 min post injection): 0.53 % ID/g
- Tumour/Blood, mean ([1]; 30 min post injection): 0.47
- Tumour/Heart, mean ([1]; 30 min post injection): 1.15
- Tumour/Lung, mean ([1]; 30 min post injection): 0.55
- Tumour/Muscle, mean ([1]; 30 min post injection): 2.06
- % ID Urinary (urinary excretion), mean ([1]; 60 min post injection): 15.02 % ID
- % ID/g Tumour, mean ([1]; 60 min post injection): 0.32 % ID/g
- Tumour/Blood, mean ([1]; 60 min post injection): 0.73
- Tumour/Heart, mean ([1]; 60 min post injection): 1.54
- Tumour/Lung, mean ([1]; 60 min post injection): 0.60
- Tumour/Muscle, mean ([1]; 60 min post injection): 2.02
- % ID Urinary (urinary excretion), mean ([1]; 120 min post injection): 19.68 % ID
- % ID/g Tumour, mean ([1]; 120 min post injection): 0.31 % ID/g
- Tumour/Blood, mean ([1]; 120 min post injection): 0.73
- Tumour/Heart, mean ([1]; 120 min post injection): 1.33
- Tumour/Lung, mean ([1]; 120 min post injection): 0.80
- Tumour/Muscle, mean ([1]; 120 min post injection): 1.81
- % ID/G Carotid, mean ([2]; 5 min post injection): 0.88 % ID/G
- Carotid/Blood, mean ([2]; 5 min post injection): 0.42
- Carotid/Heart, mean ([2]; 5 min post injection): 0.49
- Carotid/Lung, mean ([2]; 5 min post injection): 0.35
- % ID/G Carotid, mean ([2]; 60 min post injection): 0.44 % ID/G
- Carotid/Blood, mean ([2]; 60 min post injection): 0.61
- Carotid/Heart, mean ([2]; 60 min post injection): 1.11
- Carotid/Lung, mean ([2]; 60 min post injection): 0.53
